Laboratory results: patent EP0471298B1, “Carbamoyl-1-(pyridinylalkyl)-1H-indoles, indolines and related analogs” (priority 1990, dated 1992)
Like-named read-outs stand apart in the source and are kept apart here.

Target: T1, Acetylcholinesterase (AChE) (Rattus norvegicus, UniProt P37136)
T1 construct: corpora striata dissected free, weighed and homogenized in 19 volumes; from tissue; host or cells: rat corpora striata (brain) homogenate, male Wistar rats
Experiment: In vitro inhibition of acetylcholinesterase activity in rat striatum (modified Ellman method)
Type: biochemical
Text: Cholinesterases are found throughout the body, both in the brain and in serum. However, only brain acetylcholinesterease (AChE) distribution is correlated with central cholinergic innervation. […] We have determined in vitro inhibition of acetylcholinesterase activity in rat striatum according to the method described below.
In Vitro Inhibition of Acetylcholinesterase Activity in Rat Striatum
The method described below was used in this invention for assaying anticholinesterase activity. This is a modification of the method of Ellman et al., Biochem. Pharmacol. 7, 88 (1961).
• A. Reagents - • 1. 0.05 M Phosphate buffer, pH 7.2 • (a) 6.85 g NaH₂PO₄·H₂O/100 mi distilled H₂O • (b) 13.40 g Na₂HPO₄·7H₂O/100 ml distilled H₂O • (c) add (a) to (b) until pH reaches 7.2 • (d) Dilute 1:10 • 2. […] If active, IC₅₀ values are determined from the inhibitory activity of subsequent concentrations. • B. Tissue Preparation - Male Wistar rats are decapitated, brains rapidly removed, corpora striata dissected free, weighed and homogenized in 19 volumes (approximately 7 mg protein/ml) of 0.05 M phosphate buffer, pH 7.2, using a Potter-Elvehjem homogenizer. […] Assay Enzyme activity is measured with the Beckman DU-50 spectrophotometer. […] This program also calculates the rate of absorbance change for each cuvette. […]

T1 sequence (P37136 32-614): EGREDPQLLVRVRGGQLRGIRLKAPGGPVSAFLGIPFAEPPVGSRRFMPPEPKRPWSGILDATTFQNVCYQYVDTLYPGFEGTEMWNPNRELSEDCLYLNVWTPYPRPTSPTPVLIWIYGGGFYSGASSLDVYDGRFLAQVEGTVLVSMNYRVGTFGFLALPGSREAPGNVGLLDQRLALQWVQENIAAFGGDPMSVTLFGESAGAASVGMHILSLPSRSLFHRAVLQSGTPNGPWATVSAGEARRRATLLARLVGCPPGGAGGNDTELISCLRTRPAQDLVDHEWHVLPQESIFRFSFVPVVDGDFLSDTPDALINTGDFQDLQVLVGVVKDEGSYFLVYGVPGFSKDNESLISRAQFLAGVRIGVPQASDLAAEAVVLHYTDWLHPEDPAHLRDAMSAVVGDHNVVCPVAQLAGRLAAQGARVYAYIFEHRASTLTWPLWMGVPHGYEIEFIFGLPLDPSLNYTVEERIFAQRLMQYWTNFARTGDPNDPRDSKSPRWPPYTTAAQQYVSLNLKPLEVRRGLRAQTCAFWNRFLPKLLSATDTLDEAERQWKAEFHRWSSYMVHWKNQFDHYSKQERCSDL

| SMILES | IC50 [µM] | IC50 (Brain acetylcholinesterase, rat striatum homogenate, preincubated 10 minutes at 37°C, acetylthiocholine 5 mM final, pH 7.2, read-out: Inhibitory Concentration IC₅₀) [µM] |
| --- | --- | --- |
| CNC(=O)Oc1ccc2c(ccn2Cc2ccncc2)c1 [Example 1, 1-(4-Pyridinylmethyl)-1H-indol-5-yl methylcarbamate] | 6.83 | – |
| O=C(NCc1ccccc1)Oc1ccc2c(ccn2Cc2ccncc2)c1 [Example 3, 1-(4-Pyridinylmethyl)-1H-indol-5-yl phenylmethylcarbamate] | – | 12.5 |
